# Experiments:
# SHP2 = target: T1, SHP2 (Homo sapiens, UniProt Q06124); test: Phosphatase assay (PTPase assay, DiFMUP substrate); format: biochemical; conditions: full length SHP2 100 pM activated with SHP2 activating peptide, DiFMUP 80 µM, 2 hours; read-out: PTPase assay (IC50)
# T1 construct: SHP2 (full length, diluted to 100 pM final concentration in reaction buffer, BPS bioscience, US); purchased BPS bioscience, US
# T1 sequence (Q06124 1-593): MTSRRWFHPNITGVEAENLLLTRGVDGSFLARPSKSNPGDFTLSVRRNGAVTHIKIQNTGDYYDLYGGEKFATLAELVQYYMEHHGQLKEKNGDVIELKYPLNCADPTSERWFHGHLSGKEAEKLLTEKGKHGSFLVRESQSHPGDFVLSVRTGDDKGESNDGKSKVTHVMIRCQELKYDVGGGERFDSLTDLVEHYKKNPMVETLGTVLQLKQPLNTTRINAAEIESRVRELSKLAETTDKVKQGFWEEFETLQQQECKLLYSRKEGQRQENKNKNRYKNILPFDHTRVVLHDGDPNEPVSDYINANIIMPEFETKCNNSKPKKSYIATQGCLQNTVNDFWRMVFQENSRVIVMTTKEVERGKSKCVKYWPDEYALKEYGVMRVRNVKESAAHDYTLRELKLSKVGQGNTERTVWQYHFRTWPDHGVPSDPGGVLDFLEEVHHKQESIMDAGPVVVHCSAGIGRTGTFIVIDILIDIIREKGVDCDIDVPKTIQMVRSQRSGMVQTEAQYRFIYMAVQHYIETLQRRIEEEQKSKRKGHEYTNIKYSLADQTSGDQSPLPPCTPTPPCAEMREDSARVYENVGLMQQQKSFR
# Outline: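 Full-length SHP2 at 100 pM final was activated with SHP2 activating peptide for 30 min in HEPES buffer pH 7.2 with NaCl, KCl, EDTA, DTT and P-20, then compound (0.6 nM–10 µM) added. DiFMUP (80 µM) was reacted for 2 h in total; fluorescence read at 340/450 nm and IC50 fitted from concentration-response.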
# phospho-ERK = phospho-ERK assay (AlphaLisa) in H358 cells; format: cell-based; conditions: Homo sapiens, NCI-H358, 1.5 hours incubation, read-out: pERK assay (IC50)
# Procedure: H358 [20,000 cell/well] was contained in 40 µL of the cell culture solution (RPMI, 10% FBS, penicillin, streptomycin) and placed on a 384-well plate. After 24 hours, the serially diluted compound according to the Examples (concentration of minimum 0.13 nM, maximum 10 µM) was contained in 10 µL of the cell culture solution, put into wells containing cells, and incubated in a cell incubator for 1.5 hours. As a positive control group, the selective SHP2 inhibitor, TNO155 (Chemietek, US; concentration ranging from 0.13 nM to 10 µM) was used.
# Thereafter, phospho-ERK was labeled using an AlphaLisa system from PerkinElmer according to the manufacturer's instructions, and then fluorescence (680 nm excitation wavelength, 615 nm emission wavelength) values were measured using a Varioskan equipment from Thermo. IC50 values were obtained using Graphad's Prism from the measured values depending on the concentration.
# Intracellular SHP2 activity can be confirmed by measuring the degree of phosphorylation of ERK (extracellular signal regulated kinase), which represents Ras/Raf/ERK, a downstream signal pathway of SHP2. Inhibition of ERK phosphorylation by SHP2 inhibitors was confirmed through phospho-ERK analysis, which confirmed that the SHP2 inhibitors of the present disclosure have excellent activity in inhibiting ERK phosphorylation mediated by SHP2.
# H358 cells = test: Cell viability (3D spheroid, 3D CellTiter-Glo); format: cell-based; conditions: Homo sapiens, NCI-H358, 120 h; H358 spheroids, 5 days treatment
# Outline: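 H358 human NSCLC cells (4 x 10^3/well) grown 72 h in RPMI-1640 with 10% FBS to form spheroids, then treated with serially diluted compounds (1.5 nM–10 µM) for 5 days. Viability read by 3D CellTiter-Glo luminescence after 25 min at room temperature; IC50 from concentration–response.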
# [1] = Brain-plasma Pharmacokinetics; conditions: male, CD-1 (ICR), mouse, brain/plasma, 20 mg/kg
# Procedure: (§1) Nine male CD-1 mice (ICR mouse) aged 6 to 9 weeks were treated with the compounds according to the Examples at a concentration of 20 mg/kg. 0.025 mL of blood and brain tissue were collected at 1 hour, 8 hours, and 24 hours post-treatment, respectively. The collected blood was placed in an EDTA-K2 tube, centrifuged at 4°C at 3,200 x g for 10 minutes, and the supernatant plasma was collected. The brain tissue samples were collected immediately after euthanizing the CD-1 mice after blood collection and performing cardiac perfusion with cold saline. After collection, the brain tissues were washed with cold saline, wiped and dried, weighed, and homogenized using a homogenization buffer (15 mM PBS (pH 7.4): MeOH = 2:1) at a ratio of 1:3 (1 g of tissue to 3 mL of buffer, dilution ratio 4). Plasma and homogenized brain tissue samples were each transferred to a polypropylene microcentrifuge tube and stored at -60°C or lower. The concentration of compounds distributed in plasma and brain tissue was analyzed using LC-MS/MS, and the distribution in brain tissue compared to plasma was calculated as follows. Brain-to-plasma ratio = AUC(0-t) brain tissue /AUC(0-t) plasma [formula]
# (§2) In the Brain-plasma Pharmacokinetics assay, when a brain-to-plasma ratio value was 0.05 or more and less than 0.1, + was indicated, when a brain-to-plasma ratio value was 0.1 or more and less than 0.25, ++ was indicated, and when a brain-to-plasma ratio value was more than 0.25, +++ was indicated.
# in vivo = conditions: mouse, 20 mg/kg
# Procedure: as §1, §2
smiles,measurement,setting,value
"Cn1ccc2ccc(Sc3ncc(N4CCC5(CC4)Cc4ccccc4[C@H]5N)nc3N)c(Cl)c2c1=O [Example 47, (S)-7-((3-amino-5-(1-amino-1,3-dihydrospiro[indene-2,4'-piperidin]-1'-yl)pyrazin-2-yl)thio)-8-chloro-2-methylisoquinolin-1(2H)-one]",IC50,SHP2,< 3 nM
same,IC50,phospho-ERK,< 45 nM
same,IC50,H358 cells,< 10 nM
same,Kp at 24 h,[1],0.1 to 0.25
"CC(C)n1ccc2ccc(Sc3ncc(N4CCC5(CC4)Cc4ccccc4[C@H]5N)nc3N)c(Cl)c2c1=O [Example 48, (S)-7-((3-amino-5-(1-amino-1,3-dihydrospiro[indene-2,4'-piperidin]-1'-yl)pyrazin-2-yl)thio)-8-chloro-2-isopropylisoquinolin-1(2H)-one]",IC50,SHP2,< 3 nM
same,IC50,phospho-ERK,45 to 1500 nM
same,IC50,H358 cells,< 10 nM
same,Kp at 24 h,[1],0.1 to 0.25
COC(C)Cn1ccc2ccc(Sc3ncc(N4CCC5(CC4)Cc4ccccc4[C@H]5N)nc3N)c(Cl)c2c1=O (some centres unmarked) [Example 49],IC50,SHP2,< 3 nM
same,IC50,phospho-ERK,< 45 nM
same,IC50,H358 cells,< 10 nM
same,Kp at 24 h,[1],0.1 to 0.25
"COC(C)(C)Cn1cnc2ccc(Sc3cnc(N4CCC5(CC4)Oc4ccccc4[C@H]5N)cn3)c(Cl)c2c1=O [Example 50, (R)-6-((5-(3-amino-3H-spiro[benzofuran-2,4'-piperidin]-1'-yl)pyrazin-2-yl)thio)-5-chloro-3-(2-methoxy-2-methylpropyl)quinazolin-4(3H)-one]",IC50,H358 cells,< 10 nM
same,Kp at 24 h,in vivo,> 0.25

# Source: patent EP4647433A1, “SHP2 INHIBITOR AND USES THEREOF” (Kanaph Therapeutics Inc., priority 2023, dated 2024)
